Laboratory results as given in article PMC10867212, “Comparative pharmacokinetics of polymyxin B in critically ill elderly patients with extensively drug-resistant gram-negative bacteria infections” (Frontiers in Pharmacology, 2024).
Read-outs that look alike come from different tables or passages of the source. Where a SMILES comes first, the peptide text is derived from it. Bridges are numbered along the chain shown (N, C = ends). [ ]: non-standard residue; d: D form. The star is where a group is joined. X1 = CC[C@H](C)CCCCC(=O)*; Dab = NCC[C@H](N)C(=O)O

Legend:
[1] = Steady-state plasma pharmacokinetics of intravenous polymyxin B in critically ill patients (non-compartmental analysis); type: in vivo, human; details: for Normalized AUCss, 0–24 h: AUC adjusted to a daily dose of 1 mg/kg of TBW; for Cmin / Css, avg (average steady-state plasma concentration) / Cmax / AUC(0-t): HPLC-MS/MS; for Tmax: iv infusion of at least 1 h; for half-life: read-out: Half-time time (converted)
Source text: All adult patients admitted to the participating intensive care unit (ICU) in a teaching hospital between December 2021 and July 2023 were consecutively screened for entry into this prospective observational study. The ICU served a mixed population of medical, surgical, trauma, and neurologic patients. All critically ill patients (≥18 years) were eligible if they received intravenous PMB for more than 3 days (sulfate; PMB injection, Shanghai First Biochemical Pharmaceutical Co., Ltd., China) for the treatment of documented XDR-GNB infections. Exclusion criteria were 1) patients with anuria or who received blood purification therapy or extracorporeal membrane oxygenation during PMB treatment; 2) pregnant women. Informed written consent was obtained from each patient or a legal representative of the family. This study protocol was approved by the human ethics committees in Shandong Provincial Hospital Affiliated to Shandong First Medical University (protocol SWYX: No. 2021-356) and was carried out in accordance with the Declaration of Helsinki (2000) of the World Medical Association.
Patients were enrolled on the first day of intravenous PMB administration. This study continued for 28 days or until discharge from the hospital or death. According to the patient’s age, the enrolled patients were divided into two groups: the elderly group (≥65 years) and the young group (<65 years).
PMB was administrated intravenously with a loading dose of 2.0–2.5 mg/kg and maintenance doses of 1.25–1.5 mg/kg every 12 h, with at least 1 h infusion time. Calculation of both the loading dose and maintenance dose was based on the total body weight (TBW) of the patient. No dose adjustment was performed in patients with renal insufficiency and renal replacement therapy. Concurrent prescription of other potential nephrotoxic drugs, such as vancomycin, aminoglycoside, etc., was avoided as much as possible at any time during PMB treatment in our study. The initiation of PMB treatment as well as the concomitant antibiotics and their duration were at the discretion of the ICU physicians.
For steady-state PK assessment, blood samples were obtained after at least six doses of PMB. In each patient, six to eight blood samples (3 mL) were collected immediately 10 min before the infusion and 30 min and 1, 2, 3, 6, 8, and 12 h after the beginning of infusion in ethylenediaminetetraacetic acid anticoagulant tubes. Blood samples were immediately centrifuged at 3500 g for 10 min, and the plasma samples were collected and stored at −80°C until analysis. The PMB plasma concentrations were quantified by measuring both polymyxin B1 and B2 using validated high-performance liquid chromatography-tandem mass spectrometry.
The primary outcome was steady-state PMB exposure as reflected by AUCss, 0–24 h. Non-compartmental PK analysis was conducted using Phoenix WinNonlin software 8.3 (Certara, United States). The clinical variables were summarized as means with standard deviation for approximately normally distributed continuous variables or medians with interquartile range for non-normally distributed continuous variables and as frequencies and percentages for categorical variables. The normality of all data sets was determined using the Kolmogorov-Smirnov test. Categorical variables were analyzed by the chi-square or Fisher exact test, while continuous variables were analyzed by the two-tailed non-paired Student’s t-test or Mann-Whitney U test. […] All the analyses were performed with the use of the SPSS for Windows statistical program (version 22.0; IBM Corp., Armonk, NY).

[2] = ref Zavascki et al., 2008; Yun et al., 2015; cited from earlier work
Source text: PMB has been reported to accumulate in large quantities in the kidney, much more than in other organs, such as the heart, lungs, and brain. […] Considering that PMB is poorly recovered in urine (less than 1%) ([Zavascki et al., 2008]; [Yun et al., 2015]), it may be filtered from the glomerulus and reabsorbed in the proximal tubule.

[3] = all patients (n = 23), iv 1.25–1.5 mg/kg q12h, steady state, mean ± SD, SD
[4] = elderly group ≥65 years (n = 17), iv 1.25–1.5 mg/kg q12h, steady state, mean ± SD, SD
[5] = young group <65 years (n = 6), iv 1.25–1.5 mg/kg q12h, steady state, mean ± SD, SD

CC[C@H](C)CCCCC(=O)N[C@@H](CCN)C(=O)N[C@H](C(=O)N[C@@H](CCN)C(=O)N[C@H]1CCNC(=O)[C@H]([C@@H](C)O)NC(=O)[C@H](CCN)NC(=O)[C@H](CCN)NC(=O)[C@H](CC(C)C)NC(=O)[C@@H](Cc2ccccc2)NC(=O)[C@H](CCN)NC1=O)[C@@H](C)O [polymyxin B] (X1-[Dab]T[Dab][Dab][Dab][dF]L[Dab][Dab]T; lactam 4-C)
Normalized AUCss, 0–24 h ([1]; all patients (n = 23), steady state, mean ± SD, SD): 52.31 ± 28.65 mg·h/L | Cmin [1, 3]: 2990 ± 1990 ng/mL | Css, avg (average steady-state plasma concentration) [1, 3]: 4200 ± 2230 ng/mL | Normalized AUCss, 0–24 h ([1]; elderly group ≥65 years (n = 17), steady state, mean ± SD, SD): 55.23 ± 28.51 mg·h/L | Cmax [1, 4]: 9230 ± 2840 ng/mL | Cmin [1, 4]: 3110 ± 1790 ng/mL | Css, avg (average steady-state plasma concentration) [1, 4]: 4320 ± 2110 ng/mL | Clearance per TBW ([1]; elderly group ≥65 years (n = 17), per total body weight, iv, steady state, non-compartmental, mean ± SD, SD): 0.6 ± 0.4 mL/min/kg | AUC(0-t) ([1]; human, elderly group ≥65 years (n = 17), iv 1.25–1.5 mg/kg q12h after loading dose, steady state (≥6 doses), non-compartmental, mean ± SD, SD, read-out: AUCss, 0–12 h): 51800 ± 25300 ng·h/mL | Cmax ([1]; human, iv, all patients (n = 23), iv 1.25–1.5 mg/kg q12h, steady state, mean ± SD, SD, read-out: Cmax): 9410 ± 3120 ng/mL | AUC(0-t) ([1]; human, iv, all patients (n = 23), iv 1.25–1.5 mg/kg q12h, steady state, non-compartmental, mean ± SD, SD, read-out: AUCss, 0–24 h): 71900 ± 41800 ng·h/mL | AUC(0-t) ([1]; human, iv, all patients (n = 23), iv 1.25–1.5 mg/kg q12h after loading dose, steady state (≥6 doses), non-compartmental, mean ± SD, SD, read-out: AUCss, 0–12 h): 50300 ± 27000 ng·h/mL | Tmax ([1]; human, iv, all patients (n = 23), steady state, mean ± SD, SD): 54.6 ± 29.4 min | clearance ([1]; human, iv, all patients (n = 23), iv, steady state, non-compartmental, mean ± SD, SD, read-out: Clearance (converted)): 41.5 mL/min | Vd ([1]; human, iv, all patients (n = 23), iv, steady state, non-compartmental, mean ± SD, SD, read-out: Volume of distribution): 24.7 ± 11.7 L | clearance ([1]; human, iv, all patients (n = 23), per total body weight, iv, steady state, non-compartmental, mean ± SD, SD, read-out: Clearance per TBW (converted)): 0.6 mL/min/kg | Vd ([1]; human, iv, all patients (n = 23), per total body weight, iv, steady state, non-compartmental, mean ± SD, SD, read-out: Volume of distribution per TBW): 0.37 ± 0.17 L/kg | AUC(0-t) ([1]; human, iv, elderly group ≥65 years (n = 17), iv 1.25–1.5 mg/kg q12h, steady state, non-compartmental, mean ± SD, SD, read-out: AUCss, 0–24 h): 76200 ± 41800 ng·h/mL | Tmax ([1]; human, iv, elderly group ≥65 years (n = 17), steady state, mean ± SD, SD): 56.5 ± 33.6 min | clearance ([1]; human, iv, elderly group ≥65 years (n = 17), iv, steady state, non-compartmental, mean ± SD, SD, read-out: Clearance (converted)): 39.5 mL/min | half-life ([1]; human, iv, elderly group ≥65 years (n = 17), iv, steady state, non-compartmental, mean ± SD, SD): 673 ± 323 min | Vd ([1]; human, iv, elderly group ≥65 years (n = 17), iv, steady state, non-compartmental, mean ± SD, SD, read-out: Volume of distribution): 25.5 ± 12.9 L | Vd ([1]; human, iv, elderly group ≥65 years (n = 17), per total body weight, iv, steady state, non-compartmental, mean ± SD, SD, read-out: Volume of distribution per TBW): 0.4 ± 0.19 L/kg | Cmax ([1]; human, iv, young group <65 years (n = 6), iv 1.25–1.5 mg/kg q12h, steady state, mean ± SD, SD, read-out: Cmax): 9890 ± 4070 ng/mL | AUC(0-t) ([1]; human, iv, young group <65 years (n = 6), iv 1.25–1.5 mg/kg q12h, steady state, non-compartmental, mean ± SD, SD, read-out: AUCss, 0–24 h): 59500 ± 43100 ng·h/mL | Tmax ([1]; human, iv, young group <65 years (n = 6), steady state, mean ± SD, SD): 49.8 ± 15.6 min | clearance ([1]; human, iv, young group <65 years (n = 6), iv, steady state, non-compartmental, mean ± SD, SD, read-out: Clearance (converted)): 47.5 mL/min | half-life ([1]; human, iv, young group <65 years (n = 6), iv, steady state, non-compartmental, mean ± SD, SD): 394 ± 69.6 min | Vd ([1]; human, iv, young group <65 years (n = 6), iv, steady state, non-compartmental, mean ± SD, SD, read-out: Volume of distribution): 22.3 ± 7.6 L | clearance ([1]; human, iv, young group <65 years (n = 6), per total body weight, iv, steady state, non-compartmental, mean ± SD, SD, read-out: Clearance per TBW (converted)): 0.617 mL/min/kg | Vd ([1]; human, iv, young group <65 years (n = 6), per total body weight, iv, steady state, non-compartmental, mean ± SD, SD, read-out: Volume of distribution per TBW): 0.29 ± 0.09 L/kg | AUCss, 0–24 h (range) ([1]; range over the critically ill patients (n = 23), steady state): 11300 to 151280 ng·h/mL | Normalized AUCss, 0–24 h ([1]; young group <65 years (n = 6), steady state, mean ± SD, SD): 44.03 ± 30.00 mg·h/L | Cmin [1, 5]: 2650 ± 2640 ng/mL | Css, avg (average steady-state plasma concentration) [1, 5]: 3880 ± 2750 ng/mL | Recovery in urine [2]: less than 1%
